What all share (format): in vivo
For assay [1], the system named is Colletotrichum sublineolum. Briefly: Greenhouse assay, sorghum anthracnose on sorghum plants. The following applies: greenhouse sorghum plants cv. Seso3; strains 5 g/L sprayed weekly for three weeks. On the procedure: Sorghum plants (cv. Seso3) were planted in the greenhouse. Thirty five days post planting, the plants were treated with microbial strains (AIP029105, AIP075655 or AIP061382) at the rate of 5 g/L. Other treatments included inoculated check and a fungicide (Mancozeb). The treatments were arranged in a randomized complete block design with three replications, each consisting of three plants. The treatments were sprayed onto the plant until run off. Treatment with biocontrol was done weekly for three consecutive weeks.
One day post treatment, the plants were inoculated with a suspension of Colletotrichum sublineolum spores. The inoculum was prepared from a fungal isolate obtained from naturally infected sorghum in Eastern Uganda. The isolate was cultured on potato dextrose agar (PDA; Farm Eur. Laboratories Madrid, Spain), at 26-28° C. for two weeks to achieve sporulation. […]
Disease incidence was carried out by observing individual plants for the appearance of anthracnose symptoms, starting at 7 days post inoculation, and thereafter on a weekly basis for five weeks. Any plant showing anthracnose symptoms was recorded and contributed to the overall number of infected plants (incidence) succumbing to the disease irrespective of the severity. […] Data was analyzed using analysis of variance (ANOVA) in JMP® (version 14.0.0; SAS Institute Inc., Cary, N.C.).

Assay [2] concerns Mycosphaerella fijiensis. The assay is described as follows: Grand Nain leaf piece assay, black sigatoka control. The following applies: Grand Nain leaf pieces, strains 1×10^8 CFU/mL, mancozeb 10 ppm. Here is the method: The susceptible musa cultivar Grand Nain was used. Plants were maintained in the greenhouse for a constant supply of disease-free leaves. The inoculum used in this evaluation was a M. fijiensis culture obtained from the International of Tropical Agriculture (IITA), Ibadan, Nigeria and was maintained on V8 Juice agar.
Smaller leaf pieces (4 cm long×3 cm wide) were cut from the excised leaf. Two leaf pieces were placed in plastic petri dishes with adaxial side on agar amended with 5 mg/liter gibberellic acid. Leaf pieces were sprayed with 120 μL of bacterial strain (1×10^8 CFU/mL of sterile distilled water) using a fingertip sprayer. Petri dishes with leaf pieces were incubated at room temperature in the dark for 24 h. Leaf pieces were then inoculated with a mycelial suspension of M. fijiensis, Mycelial fragments scraped from growing cultures were cut in smaller mycelial tips in sterile distilled (in 50 ml conical tubes) using a homogenizer (Omni International, Kennesaw, Ga.). […]
Data recorded was the most progressed stage on inoculated leaves at the time of data collection (there are six recognized stages for black sigatoka symptom development). Data was analyzed using analysis of variance (ANOVA) in PROC GLM of SAS (version 9.4; SAS Institute Inc., Cary, N.C.) and significant differences (P<0.05) were observed among treatments.

The test system of assay [3] is Phakopsora pachyrhizi. Briefly: Soybean detached leaf disk assay, soybean rust control. The following applies: detached leaf disks, strains 1×10^8 CFU/mL, azoxystrobin 0.5 ppm. Here is the method:
The susceptible soybean cultivar Williams 82 was used. Soybean plants were planted every 2 weeks and placed inside a growth chamber (Percival Scientific, Inc., Boone, Iowa) maintained at 75% relative humidity with a cycle of 14 h of light (350 μmol m^−2 s^−1 PAR) and 10 h of darkness at 24 and 23° C., respectively, for a constant supply of 2 to 3 week-old rust-free leaves. A mixture of P. pachyrhizi urediniospores obtained from infected soybean leaves collected from Gadsden County, Fla. in 2015 and 2016 was used in this experiment. The details of maintenance and increase of P. pachyrhizi urediniospores have been described elsewhere (Twizeyimana and Hartman 2010, Plant Dis. 94:1453-1460).
Leaf disks (3.5-cm diameter each) were sprayed with 120 μL of each bacterial strain of interest (1×10^8 CFU/mL of sterile distilled water) using a fingertip sprayer (Container & Packaging Supply, Eagle, Id.) fitted to a 15 mL conical centrifuge tube (Fisher Scientific, Cat No. 14-59-53A). […]
Rust severity was scored by counting the number of sporulating uredinia in two arbitrarily selected 1-cm diameter circle of leaf tissue from an inoculated leaf disk (Table 7). Data was analyzed using analysis of variance (ANOVA) in PROC GLM of SAS (version 9.4; SAS Institute Inc., Cary, N.C.) and significant differences (P<0.05) were observed among treatments.

Assay [4] concerns Phytophthora infestans. The conditions noted are these: late blight, tomato leaf disk; strains 1×10^8 CFU/ml, mefenoxam 5 ppm; severity assessed after 7 days.
Assay [5] relates to Podosphaera xanthii. The assay is described as follows: Detached squash leaf disk assay, powdery mildew control. The conditions noted are these: detached squash leaf disks, tebuconazole 10 ppm, incubated six days. On the procedure: Leaf disks of healthy squash leaves were excised and cut into uniform leaf disks 35 mm in diameter using a large cork borer. An experimental unit consisted of a single leaf disk, each treated with a suspension of the selected bacterium. Treatments included AgBiome strains AIP061382, AIP075655, and AIP029105, and control treatments. Controls were non-inoculated and inoculated leaf disks, and the synthetic fungicide tebuconazole at 10 ppm as a positive control. Bacterial strains were prepared as described in Example 2. Each leaf disk was sprayed with 200 μL of the treatment (bacterial suspension or synthetic fungicide) on the adaxial surface 24 hours before inoculation with the pathogen, Podosphaera xanthii (strain obtained from Dr. McGrath laboratory, Cornell University). After treatment with the fungicide, leaf disks were incubated in the dark for 24 hours at 23° C.
Leaf disks were inoculated by spraying a 1×10^6 suspension of P. xanthii conidia on the treated leaf surface. Treatments were placed into sealed clear plastic boxes and incubated for six days at 25° C. with a relative humidity of 80% and a 12 hour photoperiod. […] The number of powdery mildew colonies were also recorded for each treatment. […] Data was analyzed in SAS JMP version 14.0.

The test system of assay [6] is Colletotrichum sublineolum. Briefly: Sorghum detached leaf assay, anthracnose disease control. The conditions noted are these: strains 1×10^8 CFU/mL, pyraclostrobin 10 ppm, severity assessed after 7 days. Here is the method:
Sorghum cultivar 12-GS9016-KS585 was grown in the greenhouse for a steady supply of leaf tissue for the bacterial strain evaluation. Fully expanded sorghum leaves from 4-6 weeks old plants were excised and cut into equal pieces, 2.5 cm wide. Colletotrichum sublineolum, (obtained from the Dr. Isakeit laboratory at Texas A&M University) was grown on 20% Oatmeal agar for 14 days. The actively growing culture was flooded with sterile distilled water, dislodging the spores. The concentration of the suspension was then adjusted to 1×10^6 spores/mL. Tween 20 was then added to the suspension to 0.05%.
Each of the bacterial strains of interest was streaked onto Luria Bertani (LB) agar petri plates. A single colony was picked and placed in 50 ml of LB liquid medium or in liquid culture (CHA medium; per L, NaCl (5 g), tryptone (10 g), nutrient broth (8 g), CaCl2 (0.14 mM), MgCl2.6H2O (0.2 mM), and MnCl2.4H2O (0.01 mM)) in a 250-ml flask. […]
Anthracnose severity was assessed on a scale of 0-4 after 7 days according to Prom, et al., 2016 (Plant Path J. 15(1): 11-16), with few modifications. […] Results (Table 4) were analyzed using analysis of variance (ANOVA) in JMP® (version 13.2.1; SAS Institute Inc., Cary, N.C.) and significant differences (P<0.05) were observed among bacterial strains.

This is an account of results in US20210378247A1 (priority 2018, published 2021).

With Mancozeb, the “Percent Disease Control” value in assay [1] was 52.9a %; in assay [2], 83.7%. With `CO/C=C(/C(=O)OC)c1ccccc1Oc1cc(Oc2ccccc2C#N)ncn1` [Azoxystrobin], the “Percent Disease Control” value in assay [3] is 97.0%.

In the case of `COCC(=O)N(c1c(C)cccc1C)[C@H](C)C(=O)OC` [Mefenoxam], in assay [4], the “Percent Disease Control, Confirmation” value was found to be 75.0% and the “Percent Disease Control, Primary screen” value was determined as 75.0%. Consider `CC(C)(C)C(O)(CCc1ccc(Cl)cc1)Cn1cncn1` (centres unmarked) [Tebuconazole], for which the “Percent Disease Control” value in assay [5] is reported as 67.0%.

Take `COC(=O)N(OC)c1ccccc1COc1ccn(-c2ccc(Cl)cc2)n1` [Pyraclostrobin]: in assay [6], the “Percent Disease Control, Confirmation” value was determined as 97.1% and the “Percent Disease Control, Primary screen” value is listed as 96.2%.
